# Assay results taken from patent publication US20210338708A1, “METHOD FOR TREATMENT OF CORONAVIRUS INFECTION” (Renibus Therapeutics, Inc., priority 2020, published 2021).
# Values joined by “and” are separate entries in the source; they are usually repeats but may differ in a detail not shown here. Identical values can stand only once. Like-named read-outs stand apart in the source and are kept apart here.
# Experiments:
# SARS-CoV-2 [1] = format: cell-based, SARS-CoV-2 (2019-nCoV/USA-WA1/2020 strain); details: viral replication; for % reduction relative to virus control / Virus titer, Average: 11.11 μM; for Virus titer, Rep-1 to Rep-3: 100 μM
# SARS-CoV-2 [2] = assay: Reduction of virus-induced cytopathic effect (visual and neutral red) within secondary assay; format: cell-based, SARS-CoV-2 USA_WA1/2020; details: Vero 76, 1 hour pretreatment of compound and virus
# Description: Confluent or near-confluent cell culture monolayers of Vero 76 cells are prepared in 96-well disposable microplates the day before testing. Cells are maintained in minimum essential medium (MEM) supplemented with 5% FBS. For antiviral assays the same medium is used but with FBS reduced to 2% and supplemented with 50-μg/ml gentamicin. Compounds are dissolved in DMSO, saline or the diluent requested by the submitter. […] The test compound is prepared at four serial log 10 concentrations, usually 0.1, 1.0, 10, and […] or μM (per sponsor preference). Lower concentrations are used when insufficient compound is supplied. Five microwells are used per dilution: three for infected cultures and two for uninfected toxicity cultures. Controls for the experiment consist of six microwells that are infected and not treated (virus controls) and six that are untreated and uninfected (cell controls) on every plate. A known active drug is tested in parallel as a positive control drug using the same method as is applied for test compounds. […]
# Growth media is removed from the cells and the test compound is applied in 0.1 ml volume to wells at 2× concentration. […] The dye content in each well is quantified using a spectrophotometer at 540 nm wavelength. […]
# Active compounds are further tested in a confirmatory assay. […] The incorporated dye content is quantified as described above to generate the EC50 and CC50 values.
# yellow fever virus = details: by inhibiting synthesis of NSP1; cited from earlier work
# SARS-CoV-2 [3] = format: cell-based, SARS-CoV-2 (2019-nCoV/USA-WA1/2020 strain); details: for Plaque counts: replicates, viral replication, Vero E6, 24 h
# SARS-CoV-2 [4] = format: cell-based, SARS-CoV-2 (2019-nCoV/USA-WA1/2020 strain)
# SARS-CoV-2 [5] = assay: Reduction of virus yield (Secondary VYR assay); format: cell-based, SARS-CoV-2 USA_WA1/2020; details: Vero 76, 1 hour pretreatment of compound and virus, read-out: TEST EC90
# Description: Active compounds are further tested in a confirmatory assay. This assay is set up similar to the methodology described above only eight half-log 10 concentrations of inhibitor are tested for antiviral activity and cytotoxicity. After sufficient virus replication occurs (3 days for SARS-CoV-2), a sample of supernatant is taken from each infected well (three replicate wells are pooled) and tested immediately or held frozen at −80° C. for later virus titer determination. After maximum CPE is observed, the viable plates are stained with neutral red dye. The incorporated dye content is quantified as described above to generate the EC50 and CC50 values.
# Virus yielded in the presence of test compound is titrated and compared to virus titers from the untreated virus controls. Titration of the viral samples (collected as described in the paragraph above) is performed by endpoint dilution (Reed, L. J., and H. Muench. “A Simple Method of Estimating Fifty Percent Endpoints.” Am J Hyg 27 (1938): 493-98.)
# Serial 1/10 dilutions of virus are made and plated into 4 replicate wells containing fresh cell monolayers of Vero 76 cells. Plates are then incubated, and cells are scored for the presence or absence of virus after a distinct CPE is observed, and the CCID50 calculated using the Reed-Muench method. […]
# Vero E6 cell line = Vero E6 cell line in the presence of SARS-CoV-2; NCATS/NIH data; cited from earlier work
# dengue virus = details: by inhibiting synthesis of NSP1; cited from earlier work
# SARS-CoV-2 [6] = format: cell-based, SARS-CoV-2 (2019-nCoV/USA-WA1/2020 strain); details: for Plaque counts: replicates, direct inactivation, Vero E6, 24 h
compound,measurement,setting,value
"C=CC1=C(C)c2cc3[n-]c(cc4[n-]c(cc5nc(cc1n2)C(C)=C5C=C)c(C)c4CCC(=O)O)c(CCC(=O)O)c3C.[Sn+2] [RBT-9, Stannous protoporphyrin]",cytopathic effect (CPE) of SnPP,Vero E6 cells,did not observe a cytopathic effect (CPE)
same,% reduction relative to virus control,SARS-CoV-2 [1],48%
same,"Virus titer, Average",SARS-CoV-2 [1],2 × 10^4 pfu/ml
same,% reduction relative to virus control,SARS-CoV-2 [1]; listed as SnPP,about 48%
same,"Virus titer, Average",SARS-CoV-2 [1]; listed as SnPP,2×10^4
same,"Virus titer, Rep-1 to Rep-3",SARS-CoV-2 [1],not detected
same,"Virus titer, Rep-1 to Rep-3",SARS-CoV-2 [1]; listed as SnPP,could not be detected
same,CC50,Vero 76 cells,39000 nM
same,CC50,"Vero 76 cells; read-out: VIS CC50, visual, Vero 76",27000 nM
same,EC50,"SARS-CoV-2 [2]; neutral red, read-out: NR EC50",1500 nM
same,EC50,"SARS-CoV-2 [2]; visual, read-out: VIS EC50",1500 nM
same,inhibition of viral infection,yellow fever virus,inhibit viral infection
same,Plaque counts,SARS-CoV-2 [3]; 0.005 μM,363 and 342 and 223 and 294
same,Plaque counts,SARS-CoV-2 [3]; 0.015 μM,136 and 228 and 172 and 164
same,Plaque counts,SARS-CoV-2 [3]; 0.046 μM,170 and 167 and 182 and 259
same,Plaque counts,SARS-CoV-2 [3]; 0.14 μM,293 and 228 and 264 and 211
same,Plaque counts,SARS-CoV-2 [3]; 0.41 μM,292 and 243 and 309 and 304
same,Plaque counts,SARS-CoV-2 [3]; 1.23 μM,290 and 286 and 320 and 294
same,Plaque counts,SARS-CoV-2 [3]; 3.70 μM,130 and 125 (2×) and 153
same,Plaque counts,SARS-CoV-2 [3]; 11.11 μM,143 and 134 and 129 and 145
same,Plaque counts,SARS-CoV-2 [3]; 33.33 μM,89 and 99 and 78 and 79
same,Plaque counts,SARS-CoV-2 [3]; 100 μM,15 (2×) and 12 and 7
same,EC50,"SARS-CoV-2 [3]; read-out: EC50, SARS-CoV-2 replication",45700 nM
same,% reduction relative to virus control,SARS-CoV-2 [4],46.2%
same,"Virus titer, Average",SARS-CoV-2 [4],0.98×10^4 PFU/ml
same,% reduction relative to virus control,"SARS-CoV-2 [4]; 0.411 μM, direct inactivation",No reduction
same,"Virus titer, Average","SARS-CoV-2 [4]; 0.411 μM, direct inactivation",1.83 × 10^4 PFU/ml
same,"Virus titer, Rep-1 to Rep-3","SARS-CoV-2 [4]; 0.411 μM, direct inactivation",2.25 × 10^4 PFU/ml and 1.75 × 10^4 PFU/ml and 1.5 × 10^4 PFU/ml
same,% reduction relative to virus control,"SARS-CoV-2 [4]; 0.411 μM, direct inactivation, listed as SnPP",no reduction
same,% reduction relative to virus control,"SARS-CoV-2 [4]; 3.7 μM, direct inactivation",98.6%
same,"Virus titer, Average","SARS-CoV-2 [4]; 3.7 μM, direct inactivation",0.25 × 10^4 PFU/ml
same,% reduction relative to virus control,"SARS-CoV-2 [4]; 3.7 μM, direct inactivation, listed as SnPP",About 98.6%
same,EC90,SARS-CoV-2 [5],970 nM
same,CC50,Vero E6 cell line,> 30000 nM
same,inhibition of viral infection,dengue virus,inhibit viral infection
same,Plaque counts,SARS-CoV-2 [6]; 0.005 μM,203 and 304 and 260 and 236
same,Plaque counts,SARS-CoV-2 [6]; 0.015 μM,189 and 212
same,Plaque counts,SARS-CoV-2 [6]; 0.046 μM,222 and 332 and 256 and 196
same,Plaque counts,SARS-CoV-2 [6]; 0.14 μM,217 and 354 and 230 and 174
same,Plaque counts,SARS-CoV-2 [6]; 0.41 μM,259 and 194 and 205 and 235
same,Plaque counts,SARS-CoV-2 [6]; 1.23 μM,117 and 64 and 132 and 189
same,Plaque counts,SARS-CoV-2 [6]; 3.70 μM,0 (3×) and 48
same,Plaque counts,SARS-CoV-2 [6]; 11.11 μM,0
same,Plaque counts,SARS-CoV-2 [6]; 33.33 μM,0
same,Plaque counts,SARS-CoV-2 [6]; 100 μM,0
same,EC50,"SARS-CoV-2 [6]; read-out: mean EC50, direct SARS-CoV-2 inactivation",1320 nM
"CCC(CC)COC(=O)[C@H](C)N[P@](=O)(OC[C@H]1O[C@@](C#N)(c2ccc3c(N)ncnn23)[C@H](O)[C@@H]1O)Oc1ccccc1 [Remdesivir, reference compound]",Plaque counts,SARS-CoV-2 [3]; 0.003 μM,353 and 324
same,Plaque counts,SARS-CoV-2 [3]; 0.008 μM,195
same,Plaque counts,SARS-CoV-2 [3]; 0.023 μM,245
same,Plaque counts,SARS-CoV-2 [3]; 0.07 μM,233 and 192
same,Plaque counts,SARS-CoV-2 [3]; 0.21 μM,212 and 200
same,Plaque counts,SARS-CoV-2 [3]; 0.62 μM,274 and 270
same,Plaque counts,SARS-CoV-2 [3]; 1.85 μM,64 and 76
same,Plaque counts,SARS-CoV-2 [3]; 5.56 μM,0
same,Plaque counts,SARS-CoV-2 [3]; 16.67 μM,0
same,Plaque counts,SARS-CoV-2 [3]; 50 μM,0
